The source of these data is US9617240B2 (TEIJIN PHARMA LIMITED, priority 2013, dated 2017).

pIC50: −log10 of the molar value. Where only a bound is given, the exact number is not on record here.

The test system of experiment [1] is level of uric acid in the plasma. Put plainly: Hypouricemic effect in beagle dogs. It counts as in vivo. As to conditions: oral gavage, 3 mg/kg, 24 hours after administration. Here is the method: The hypouricemic effect of the compound (I) in beagle dogs was confirmed. A test compound suspended in a 0.5% methyl cellulose solution was orally administered by gavage to beagle dogs (Kitayama Labes). Blood was drawn from the cephalic vein at 24 hours after administration and plasma was separated. The level of uric acid in the plasma sample was measured using an LC-MS/MS method and the percentage of hypouricemic effect was determined by the following expression: Percentage of hypouricemic effect (%)=(Level of uric acid of the control animal−Level of uric acid of the test compound-administered animal)×100/Level of uric acid of the control animal.

Experiment [2] concerns level of uric acid in the blood. Briefly: Hypouricemic effect in Cebus apella monkeys. The following applies: gavage, 1 mg/kg. It counts as in vivo. Here is the method:
To Cebus apella monkeys, test compounds suspended in 0.5% methylcellulose solution were administered by gavage into the stomach through the nasal cavity using a disposable catheter and a syringe. Blood was taken from the saphenous vein at 4 hours and 24 hours after the administration, after which the plasma was separated. The level of uric acid in the blood was measured using a uric acid measurement kit (L type Wako UA F: Wako Pure Chemical Industries, Ltd.) by the uricase method using an absorption spectrometer and the percentage of hypouricemic effect was determined by the following expression: Percentage of hypouricemic effect (%)=(Level of uric acid of the control animal−Level of uric acid of the test compound-administered animal)×100/Level of uric acid of the control animal.

Experiment [3] shares this test system. Briefly: Hypouricemic effect in normal rats. It counts as in vivo, Sprague-Dawley male rats. As to conditions: oral gavage, 1 mg/kg. How it is done:
A test compound suspended in a 0.5% methylcellulose solution was administered to 8 to 9 week-old Sprague-Dawley male rats (Japan Charles River Co.) by oral gavage administration using a feeding needle. After the blood was collected from the tail vein at 6 hours and 24 hours after administration, the plasma was separated. The level of uric acid in the blood sample was measured by uricase method using an absorption spectrometer as well as a uric acid determination kit (L type Wako UA F: Wako Pure Chemical Industries, Ltd.). The percentage of hypouricemic effect was determined by the following expression: Percentage of hypouricemic effect (%)=(Level of uric acid of the control animal−Level of uric acid of the test compound-administered animal)×100/Level of uric acid of the control animal.

For experiment [4], the target named is T1, oxidase type xanthine oxidase (derived from buttermilk) (Bos taurus, UniProt P80457).
T1 construct: oxidase type xanthine oxidase (derived from buttermilk, supplied by Calbiochem Novabiochem Corp.); purchased Calbiochem Novabiochem Corp; host or cells: buttermilk (natural source)
Briefly: Xanthine oxidase inhibitory activity (absorbance change at 290 nm). The experiment is classed as biochemical. As to conditions: xanthine substrate, 100 mM phosphate buffer, absorbance at 290 nm for 5 minutes; read-out: Inhibitory Activity (50% inhibitory concentration with respect to oxidase type xanthine oxidase). Put shortly: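 Buttermilk xanthine oxidase (stock 30.6 mU/mL) was added to 30 μM xanthine stock in 100 mM phosphate buffer containing test compound (1% DMSO). Absorbance change at 290 nm was followed for 5 minutes. Inhibition was calculated against a DMSO control, and IC50 came from dose-response fitting.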

T1 sequence (P80457 whole entry): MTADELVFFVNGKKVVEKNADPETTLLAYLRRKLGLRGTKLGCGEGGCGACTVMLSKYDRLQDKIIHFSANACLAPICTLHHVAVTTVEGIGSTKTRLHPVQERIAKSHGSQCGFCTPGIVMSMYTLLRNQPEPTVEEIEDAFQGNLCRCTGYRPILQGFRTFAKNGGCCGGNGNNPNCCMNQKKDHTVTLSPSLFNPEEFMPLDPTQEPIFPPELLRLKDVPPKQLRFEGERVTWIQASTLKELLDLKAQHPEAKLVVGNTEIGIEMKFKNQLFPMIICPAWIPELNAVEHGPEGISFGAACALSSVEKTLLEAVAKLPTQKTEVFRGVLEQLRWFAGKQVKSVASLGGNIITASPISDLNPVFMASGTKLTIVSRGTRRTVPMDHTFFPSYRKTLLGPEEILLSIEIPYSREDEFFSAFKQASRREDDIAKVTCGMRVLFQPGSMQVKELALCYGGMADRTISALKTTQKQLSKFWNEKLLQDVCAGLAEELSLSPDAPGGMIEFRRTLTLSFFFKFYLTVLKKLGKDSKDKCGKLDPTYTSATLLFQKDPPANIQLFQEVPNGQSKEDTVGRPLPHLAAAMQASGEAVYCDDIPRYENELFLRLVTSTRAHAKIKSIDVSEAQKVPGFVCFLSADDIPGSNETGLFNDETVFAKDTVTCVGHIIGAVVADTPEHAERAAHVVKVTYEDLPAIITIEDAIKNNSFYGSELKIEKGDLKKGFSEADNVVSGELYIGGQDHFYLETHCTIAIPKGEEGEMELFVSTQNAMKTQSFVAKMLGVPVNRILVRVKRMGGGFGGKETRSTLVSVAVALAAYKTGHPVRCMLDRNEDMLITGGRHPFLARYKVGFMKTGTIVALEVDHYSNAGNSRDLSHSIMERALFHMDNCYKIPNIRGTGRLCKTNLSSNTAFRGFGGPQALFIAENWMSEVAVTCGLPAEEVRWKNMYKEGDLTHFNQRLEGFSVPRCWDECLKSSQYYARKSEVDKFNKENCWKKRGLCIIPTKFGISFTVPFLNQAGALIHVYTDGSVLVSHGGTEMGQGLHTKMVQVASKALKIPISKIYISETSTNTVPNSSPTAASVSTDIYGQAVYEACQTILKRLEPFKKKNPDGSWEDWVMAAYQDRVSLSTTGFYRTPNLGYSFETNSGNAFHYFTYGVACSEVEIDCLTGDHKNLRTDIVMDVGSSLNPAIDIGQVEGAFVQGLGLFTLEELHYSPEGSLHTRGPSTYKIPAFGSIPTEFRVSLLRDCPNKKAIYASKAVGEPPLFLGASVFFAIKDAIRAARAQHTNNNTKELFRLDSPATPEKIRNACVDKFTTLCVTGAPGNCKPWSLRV

On to `N#Cc1cc(-n2cc(C(=O)O)cn2)ncc1-c1ccccc1` [Compound 1, 1-(4-cyano-5-phenylpyridin-2-yl)-1H-pyrazole-4-carboxylic acid], for which the “Percentage of hypouricemic effect” value in experiment [1] was not below 50%; in experiment [2] (4 hours after administration), not below 50%; in experiment [2] (24 hours after administration), not below 50%; in experiment [3] (6 hours after administration) it was not below 70%; in experiment [3] (24 hours after administration) it was not below 70%. Moreover, the pIC50 in experiment [4] is 8.30 to 9.00. On to `N#Cc1nc(-n2cc(C(=O)O)cn2)ccc1-c1ccc(F)cc1F` [Compound 90, 1-[6-cyano-5-(2,4-difluorophenyl)pyridin-2-yl]-1H-pyrazole-4-carboxylic acid], for which the pIC50 in experiment [4] is not above 8.00. `COc1ccc(F)c(-c2ccc(-n3cc(C(=O)O)cn3)nc2C#N)c1` [Compound 91, 1-[6-cyano-5-(2-fluoro-5-methoxyphenyl)pyridin-2-yl]-1H-pyrazole-4-carboxylic acid]: in experiment [4], the pIC50 is 8.00 to 8.30.

Take `Cc1cccc(-c2ccc(-n3cc(C(=O)O)cn3)nc2C#N)c1` [Compound 92, 1-[6-cyano-5-(3-methylphenyl)pyridin-2-yl]-1H-pyrazole-4-carboxylic acid]: the pIC50 in experiment [4] was not above 8.00. As to `CCOc1cccc(-c2ccc(-n3cc(C(=O)O)cn3)nc2C#N)c1` [Compound 93, 1-[6-cyano-5-(3-ethoxyphenyl)pyridin-2-yl]-1H-pyrazole-4-carboxylic acid], the pIC50 in experiment [4] is not above 8.00.

With `Cc1cc(-c2ccc(-n3cc(C(=O)O)cn3)nc2C#N)ccc1F` [Compound 94, 1-[6-cyano-5-(4-fluoro-3-methylphenyl)pyridin-2-yl]-1H-pyrazole-4-carboxylic acid], in experiment [4], the pIC50 is not above 8.00. On to `N#Cc1nc(-n2cc(C(=O)O)cn2)ccc1-c1c(F)cccc1F` [Compound 95, 1-[6-cyano-5-(2,6-difluorophenyl)pyridin-2-yl]-1H-pyrazole-4-carboxylic acid], for which the pIC50 in experiment [4] was 8.00 to 8.30. As for `COc1cccc(F)c1-c1ccc(-n2cc(C(=O)O)cn2)nc1C#N` [Compound 96, 1-[6-cyano-5-(2-fluoro-6-methoxyphenyl)pyridin-2-yl]-1H-pyrazole-4-carboxylic acid], in experiment [4], the pIC50 was not above 8.00. For the compound `N#Cc1cc(-n2cc(C(=O)O)c(N)n2)ncc1-c1ccccc1` [Compound 97, 3-amino-1-(4-cyano-5-phenylpyridin-2-yl)-1H-pyrazole-4-carboxylic acid], the pIC50 in experiment [4] was 8.30 to 9.00. For `N#Cc1cc(-n2cc(C(=O)O)c(N)n2)ncc1-c1ccccc1F` [Compound 98, 3-amino-1-[4-cyano-5-(2-fluorophenyl)pyridin-2-yl]-1H-pyrazole-4-carboxylic acid], the pIC50 in experiment [4] was 8.30 to 9.00. Still for that read-out and setting: the value for `N#Cc1cc(-n2cc(C(=O)O)c(N)n2)ncc1-c1ccc(F)cc1` [Compound 99, 3-amino-1-[4-cyano-5-(4-fluorophenyl)pyridin-2-yl]-1H-pyrazole-4-carboxylic acid] was 8.30 to 9.00; that for `N#Cc1cc(-n2cc(C(=O)O)c(N)n2)ncc1-c1ccc(Cl)cc1` [Compound 100, 3-amino-1-[4-cyano-5-(4-chlorophenyl)pyridin-2-yl]-1H-pyrazole-4-carboxylic acid] was 8.30 to 9.00. On the same count and under the same terms, the value for `Cc1cccc(-c2cnc(-n3cc(C(=O)O)c(N)n3)cc2C#N)c1` [Compound 101, 3-amino-1-[4-cyano-5-(3-methylphenyl)pyridin-2-yl]-1H-pyrazole-4-carboxylic acid] was 8.30 to 9.00.

For the compound `COc1cccc(-c2cnc(-n3cc(C(=O)O)c(N)n3)cc2C#N)c1` [Compound 102, 3-amino-1-[4-cyano-5-(3-methoxyphenyl)pyridin-2-yl]-1H-pyrazole-4-carboxylic acid], the pIC50 in experiment [4] was 8.30 to 9.00. Turning to `Cc1ccc(-c2cnc(-n3cc(C(=O)O)c(N)n3)cc2C#N)c(F)c1` [Compound 103, 3-amino-1-[4-cyano-5-(2-fluoro-4-methylphenyl)pyridin-2-yl]-1H-pyrazole-4-carboxylic acid], the pIC50 in experiment [4] was 8.30 to 9.00. Still for that read-out and setting: the value for `Cc1ccc(F)c(-c2cnc(-n3cc(C(=O)O)c(N)n3)cc2C#N)c1` [Compound 104, 3-amino-1-[4-cyano-5-(2-fluoro-5-methylphenyl)pyridin-2-yl]-1H-pyrazole-4-carboxylic acid] was 8.30 to 9.00; that for `N#Cc1cc(-n2cc(C(=O)O)c(N)n2)ncc1-c1ccc(F)cc1F` [Compound 105, 3-amino-1-[4-cyano-5-(2,4-difluorophenyl)pyridin-2-yl]-1H-pyrazole-4-carboxylic acid] was 8.30 to 9.00.

As to `Cc1cc(-c2cnc(-n3cc(C(=O)O)c(N)n3)cc2C#N)ccc1F` [Compound 106, 3-amino-1-[4-cyano-5-(4-fluoro-3-methylphenyl)pyridin-2-yl]-1H-pyrazole-4-carboxylic acid], the pIC50 in experiment [4] is 8.30 to 9.00. For `COc1ccc(F)c(-c2cnc(-n3cc(C(=O)O)c(N)n3)cc2C#N)c1` [Compound 107, 3-amino-1-[4-cyano-5-(2-fluoro-5-methoxyphenyl)pyridine-2-yl]-1H-pyrazole-4-carboxylic acid], the pIC50 in experiment [4] is 8.30 to 9.00.
